Series [1] deals with HIV-1. The settings on record: HIV-1-infected C8166, three days, MTT.
Protocol: 50□1 medium was added into half of the holes on the culture plate and 50□1 diluted supernatant fluid of HIV-1, in which the value of M.O.I was 0.0089, was added into the other half of the holes on the culture plate. At the same time, the blank control holes without the drug (the negative control) were set and the control culture holes with positive drug AZT (the positive control) were set too. They were put into 5%CO2 incubator under 37 °C for three days. The survival rate of cells was determined by MTT method. OD values (595 nm/630 nm) were determined by ELx800ELISA Reader. […] Survival rate of normal cells (%) =OD value of the experimental hole/OD value of negative control hole □ 100%
Protective rate of infected cells (%)=(OD value of the experimental hole—OD value of positive control hole)/(OD value of negative control hole—OD value of positive control hole) □ 100%
In series [2] the test system is HIV-1. The note with it: C8166 + HIV-1, M.O.I 0.0089, three days; one value per date of experiment.
Protocol: 50□1 diluted supernatant fluid of HIV-1 was added to the mixture and the value of M.O.I was 0.0089. At the same time, the control hole without the drug and the control hole with positive drug AZT were set. They were put into 5%CO2 incubator under 37? for three days. The amount of syncytium was counted under an inverted microscope (100×□) (in five visual fields). IC50, that is, the concentration of the drugs inhibiting 50% syncytium formation, was determined.
Series [3] has as its system C8166 cells. It counts as cell-based.
Protocol: 50□1 medium was added into half of the holes on the culture plate and 50□1 diluted supernatant fluid of HIV-1, in which the value of M.O.I was 0.0089, was added into the other half of the holes on the culture plate. At the same time, the blank control holes without the drug (the negative control) were set and the control culture holes with positive drug AZT (the positive control) were set too. They were put into 5%CO2 incubator under 37 °C for three days. The survival rate of cells was determined by MTT method. OD values (595 nm/630 nm) were determined by ELx800ELISA Reader. The following formulae were used to calculate the survival rate of normal cells caused by the drug and the protective rate of the drug for HIV-1-infected cells. Survival rate of normal cells (%) =OD value of the experimental hole/OD value of negative control hole □ 100%
In series [4] the test system is C8166 cells. It counts as cell-based. The settings on record: C8166, three days, MTT; one value per date of experiment.
Series [5] can be described thus: Clinical trial in type 2 diabetes patients. It counts as in vivo, human. The settings on record: 52 cases per group. An excerpt:
According to diagnostic criteria of diabetes by WHO(1985), 104 diabetes patients were diagnosed to have type 2 diabetes. Wherein, 56 patients were male and 48 patients were female at average age of […]. All of them had diabetes for […] years. They were divided into two groups at random:
Group A: treatment group administrated the granules of example 1
Group B: control group administrated Micronase (produced by Shandong Boshan Pharmaceutical Factory, Batch: 990917)
Control group: Micronase was orally taken at 30 minutes before meal in three times per day and 2.5 mg(tablet) each time.

Values joined by “and” are separate entries in the source; they are usually repeats but may differ in a detail not shown here. Equal values may be shown once.

With `Cc1cn([C@H]2C[C@H](N=[N+]=[N-])[C@@H](CO)O2)c(=O)[nH]c1=O` [AZT], the “IC50 (EC50 of protective effects on infected cells)” value in the series with HIV-1 [1] was 0.15 µg/mL. Further, in the series with HIV-1 [2], the “IC50 inhibiting syncytium formation (head prints TC50)” value was 0.23 µg/mL and 0.18 µg/mL. The “TC50 obtained by protective experiment (toxic effects on normal cells)” value with C8166 cells [3] was greater than 50 µg/mL. Besides, the “TC50 (concentration causing the death of 50% the cells)” value in the series on C8166 cells [4] is greater than 50 µg/mL.

With `COc1ccc(Cl)cc1C(=O)NCCc1ccc(S(=O)(=O)NC(=O)NC2CCCCC2)cc1` [Micronase], in series [5] (baseline), the “blood sugar at 2 hours after meal, mean before therapy” value is listed as 14.67 ± 1.49 and the “fasting blood sugar, mean before therapy” value turned out to be 9.53 ± 1.46. In series [5] (therapy for 3 months), the “blood sugar at 2 hours after meal, mean after therapy” value is listed as 12.14 ± 2.53 and the “fasting blood sugar, mean after therapy” value amounted to 6.53 ± 1.53.

Source of the values: patent US20070248619A1, “New pharmaceutical composition from natural materials for regulating immunity, its preparation method and use” (priority 2006, published 2007).
